From US20220061324A1, “PESTICIDALLY ACTIVE HETEROCYCLIC DERIVATIVES WITH SULFUR CONTAINING SUBSTITUENTS” (SYNGENTA CROP PROTECTION AG, priority 2018, published 2022)
Read-outs that look alike come from different tables or passages of the source.

Assays:
Type in all cases: in vivo
[1] = test system: Spodoptera littoralis (Egyptian Cotton Leaf Worm); assay: Activity against Spodoptera littoralis (Egyptian cotton leaf worm), cotton leaf discs; details: foliar, 72 h, read-out: control (mortality, anti-feedant effect or growth inhibition)
Protocol: Example B5: Activity Against Spodoptera littoralis (Egyptian Cotton Leaf Worm)
Cotton leaf discs were placed onto agar in 24-well microtiter plates and sprayed with aqueous test solutions prepared from 10,000 ppm DMSO stock solutions. After drying the leaf discs were infested with five L1 larvae. The samples were assessed for mortality, anti-feeding effect, and growth inhibition in comparison to untreated samples 3 days after infestation. Control of Spodoptera littoralis by a test sample is given when at least one of the categories mortality, anti-feedant effect, and growth inhibition is higher than the untreated sample.

[2] = test system: Diabrotica balteata (Corn Root Worm); assay: Activity against Diabrotica balteata (corn root worm), maize sprouts sprayed; details: 96 h, read-out: effect in at least one of the two categories (mortality or growth inhibition); for percent effect (mortality or growth inhibition) at 200 ppm: application rate 200 ppm, L2 larvae, 4 days after infestation
Protocol: Example B1: Activity Against Diabrotica balteata (Corn Root Worm)
Maize sprouts placed onto an agar layer in 24-well microtiter plates were treated with aqueous test solutions prepared from 10,000 ppm DMSO stock solutions by spraying. After drying, the plates were infested with L2 larvae (6 to 10 per well). The samples were assessed for mortality and growth inhibition in comparison to untreated samples 4 days after infestation.

[3] = test system: Plutella xylostella (Diamond Back Moth); assay: Activity against Plutella xylostella (diamond back moth), artificial diet; details: 192 h, read-out: effect in at least one of the two categories (mortality or growth inhibition); for percent effect (mortality or growth inhibition) at 200 ppm: application rate 200 ppm, eggs, 8 days after infestation
Protocol: Example B3: Activity Against Plutella xylostella (Diamond Back Moth)
24-well microtiter plates with artificial diet were treated with aqueous test solutions prepared from 10,000 ppm DMSO stock solutions by pipetting. After drying, Plutella eggs were pipetted through a plastic stencil onto a gel blotting paper and the plate was closed with it. The samples were assessed for mortality and growth inhibition in comparison to untreated samples 8 days after infestation.

[4] = test system: Myzus persicae (Green Peach Aphid); assay: Activity against Myzus persicae (green peach aphid), feeding/contact activity; details: 144 h
Protocol: Example B4: Activity Against Myzus persicae (Green Peach Aphid) Feeding/Contact Activity
Sunflower leaf discs were placed onto agar in a 24-well microtiter plate and sprayed with aqueous test solutions prepared from 10,000 ppm DMSO stock solutions. After drying, the leaf discs were infested with an aphid population of mixed ages. The samples were assessed for mortality 6 days after infestation.

[5] = application rate 200 ppm, L1 larvae, 3 days after infestation
[6] = application rate 200 ppm, feeding/contact, mixed ages, 6 days after infestation, read-out: mortality

SMILES	percent effect (mortality or growth inhibition) at 200 ppm [2]	percent effect (mortality or growth inhibition) at 200 ppm [3]	percent control (mortality or growth inhibition) at 200 ppm [3]	also measured
CCSc1cc(Oc2ccccn2)cnc1-c1ncc2c(OCC(F)(F)C(F)(F)F)nccn12 [Compound P20, 3-[3-ethylsulfanyl-5-(2-pyridyloxy)-2-pyridyl]-8-(2,2,3,3,3-penta-fluoropropoxy)imidazo [1,5-a]pyrazine]	≥ 80%	≥ 80%	–	percent control (mortality, anti-feedant effect or growth inhibition) at 200 ppm [1, 5]: ≥ 80%
CCS(=O)(=O)c1cc(C2CC2)cnc1-c1ncc2c(OCC(F)(F)C(F)(F)F)cccn12 [Compound P40, 3-(5-cyclopropyl-3-ethylsulfonyl-2-pyridyl)-8-(2,2,3,3,3-penta-fluoropropoxy)imidazo [1,5-a]pyridine]	≥ 80%	≥ 80%	–	mortality at 200 ppm [4, 6]: ≥ 80%
CCSc1cc(N(C)C(C)=O)cnc1-c1ncc2c(OCC(F)(F)C(F)(F)F)cccn12 [Compound P41, N-[5-ethylsulfanyl-6-[8-(2,2,3,3,3-penta-fluoropropoxy)imidazo [1,5-a]pyridin-3-yl]-3-pyridyl]-N-methyl-acetamide]	–	≥ 80%	–	–
CCS(=O)(=O)c1ccc(-n2cncn2)nc1-c1ncc2c(OCC(F)(F)C(F)(F)F)cccn12 [Compound P33, 3-[3-ethylsulfonyl-6-(1,2,4-triazol-1-yl)-2-pyridyl]-8-(2,2,3,3,3-pentafluoropropoxy)imi dazo[1,5-a]pyri-dine]	–	–	≥ 80%	percent control (mortality, anti-feedant effect or growth inhibition) at 200 ppm [1]: ≥ 80%; percent control (mortality or growth inhibition) at 200 ppm [2]: ≥ 80%
CCSc1cc(C(C)(C)C#N)cnc1-c1ncc2c(OCC(F)(F)C(F)(F)F)cccn12 [Compound P46, 2-[5-ethylsulfanyl-6-[8-(2,2,3,3,3-penta-fluoropropoxy)imidazo [1,5-a]pyridin-3-yl]-3-pyridyl]-2-methyl-propanenitrile]	–	≥ 80%	–	–
CCSc1cc(C2CC2)cnc1-c1ncc2c(OCC(F)(F)C(F)(F)F)nccn12 [Compound P22, 3-(5-cyclopropyl-3-ethylsulfanyl-2-pyridyl)-8-(2,2,3,3,3-penta-fluoropropoxy)imidazo [1,5-a]pyrazine]	≥ 80%	≥ 80%	–	percent control (mortality, anti-feedant effect or growth inhibition) at 200 ppm [1, 5]: ≥ 80%
CCS(=O)(=O)c1ccc(N(C)C(=O)C2CC2)nc1-c1ncc2c(OCC(F)(F)C(F)(F)F)cccn12 [Compound P38, N-[5-ethylsulfonyl-6-[8-(2,2,3,3,3-penta-fluoropropoxy)imidazo [1,5-a]pyridin-3-yl]-2-pyridyl]-N-methyl-cyclopropanecarboxamide]	≥ 80%	≥ 80%	–	percent control (mortality, anti-feedant effect or growth inhibition) at 200 ppm [1, 5]: ≥ 80%
CCSc1cc(C2(C#N)CC2)cnc1-c1ncc2c(OCC(F)(F)C(F)(F)F)cccn12 [Compound P53, 1-[5-ethylsulfanyl-6-[8-(2,2,3,3,3-penta-fluoropropxoy)imidazo [1,5-a]pyridin-3-yl]-3-pyridyl]cyclopropane-carbonitrile]	≥ 80%	≥ 80%	–	–
CCS(=O)(=O)c1ccc(NC)nc1-c1ncc2c(OCC(F)(F)C(F)(F)F)cccn12 [Compound P31, 5-ethylsulfonyl-N-methyl-6-[8-(2,2,3,3,3-penta-fluoropropoxy)imidazo [1,5-a]pyridin-3-yl]pyri-din-2-amine]	≥ 80%	≥ 80%	–	percent control (mortality, anti-feedant effect or growth inhibition) at 200 ppm [1, 5]: ≥ 80%; mortality at 200 ppm [4, 6]: ≥ 80%
CCSc1cccnc1-c1ncc2c(OCC(F)(F)C(F)(F)F)nccn12 [Compound P7, 3-(3-ethylsulfanyl-2-pyridyl)-8-(2,2,3,3,3-pentafluoropropoxy)imi-dazo[1,5-a]pyrazine]	–	–	≥ 80%	percent control (mortality or growth inhibition) at 200 ppm [2]: ≥ 80%; mortality at 200 ppm [4]: ≥ 80%
CCS(=O)(=O)c1ccc(N(C)C(=O)NC)nc1-c1ncc2c(OCC(F)(F)C(F)(F)F)nccn12 [Compound P14, 1-[5-ethylsulfonyl-6-[8-(2,2,3,3,3-penta-fluoropropoxy)imidazo [1,5-a]pyrazin-3-yl]-2-pyridyl]-1,3-dimethyl-urea]	≥ 80%	≥ 80%	–	percent control (mortality, anti-feedant effect or growth inhibition) at 200 ppm [1, 5]: ≥ 80%; mortality at 200 ppm [4, 6]: ≥ 80%
CCS(=O)(=O)c1ccc(NC(=O)NC)nc1-c1ncc2c(OCC(F)(F)C(F)(F)F)nccn12 [Compound P9, 1-[5-ethylsulfonyl-6-[8-(2,2,3,3,3-penta-fluoropropoxy)imidazo [1,5-a]pyrazin-3-yl]-2-pyridyl]-3-methyl-urea]	≥ 80%	≥ 80%	–	–
CCS(=O)(=O)c1ccc(Cl)nc1-c1ncc2c(OCC(F)(F)C(F)(F)F)cccn12 [Compound P30, 3-(6-chloro-3-ethylsulfonyl-2-pyridyl)-8-(2,2,3,3,3-pentafluoropropoxy)imi-dazo[1,5-a]pyridine]	–	–	≥ 80%	percent control (mortality, anti-feedant effect or growth inhibition) at 200 ppm [1]: ≥ 80%
CCS(=O)(=O)c1cc(Br)cnc1-c1ncc2c(OCC(F)(F)C(F)(F)F)cccn12 [Compound P43, 3-(5-bromo-3-ethylsulfonyl-2-pyridyl)-8-(2,2,3,3,3-pentafluoropropoxy)imi-dazo[1,5-a]pyridine]	–	–	≥ 80%	percent control (mortality or growth inhibition) at 200 ppm [2]: ≥ 80%
CCS(=O)(=O)c1ccc(N(C)C(C)=O)nc1-c1ncc2c(OCC(F)(F)C(F)(F)F)cccn12 [Compound P37, N-[5-ethylsulfonyl-6-[8-(2,2,3,3,3-penta-fluoropropoxy)imidazo [1,5-a]pyridin-3-yl]-2-pyridyl]-N-methyl-acetamide]	≥ 80%	≥ 80%	–	mortality at 200 ppm [4, 6]: ≥ 80%
CCSc1cc(C2CC2)cnc1-c1ncc2c(OCC(F)(F)C(F)(F)F)cccn12 [Compound P42, 3-(5-cyclopropyl-3-ethylsulfanyl-2-pyridyl)-8-(2,2,3,3,3-penta-fluoropropoxy)imidazo [1,5-a]pyridine]	≥ 80%	≥ 80%	–	–
CCS(=N)(=O)c1cc(OC(C)(C)C#N)cnc1-c1ncc2c(OCC(F)(F)C(F)(F)F)cccn12 (stereo not drawn) [Compound P49, 2-[[5-(ethylsulfonimidoyl)-6-[8-(2,2,3,3,3-penta-fluoropropoxy)imidazo [1,5-a]pyridin-3-yl]-3-pyridyl]oxy]-2-methyl-propanenitrile]	≥ 80%	≥ 80%	–	–
CCSc1cccnc1-c1ncc2c(OCC(F)(F)C(F)F)nccn12 [Compound P5]	–	–	≥ 80%	percent control (mortality, anti-feedant effect or growth inhibition) at 200 ppm [1]: ≥ 80%; percent control (mortality or growth inhibition) at 200 ppm [2]: ≥ 80%; mortality at 200 ppm [4]: ≥ 80%
CCS(=O)(=O)c1cccnc1-c1ncc2c(OCC(F)(F)C(F)F)nccn12 [Compound P6, 3-(3-ethylsulfonyl-2-pyridyl)-8-(2,2,3,3-tetrafluoropropoxy)imi-dazo[1,5-a]pyrazine]	–	–	≥ 80%	percent control (mortality, anti-feedant effect or growth inhibition) at 200 ppm [1]: ≥ 80%; percent control (mortality or growth inhibition) at 200 ppm [2]: ≥ 80%; mortality at 200 ppm [4]: ≥ 80%
